Experiment [1] has as its target T1, purified recombinant human Aggrecanase-1 (rAgg1) (Homo sapiens, UniProt O75173).
T1 sequence (O75173 213-837): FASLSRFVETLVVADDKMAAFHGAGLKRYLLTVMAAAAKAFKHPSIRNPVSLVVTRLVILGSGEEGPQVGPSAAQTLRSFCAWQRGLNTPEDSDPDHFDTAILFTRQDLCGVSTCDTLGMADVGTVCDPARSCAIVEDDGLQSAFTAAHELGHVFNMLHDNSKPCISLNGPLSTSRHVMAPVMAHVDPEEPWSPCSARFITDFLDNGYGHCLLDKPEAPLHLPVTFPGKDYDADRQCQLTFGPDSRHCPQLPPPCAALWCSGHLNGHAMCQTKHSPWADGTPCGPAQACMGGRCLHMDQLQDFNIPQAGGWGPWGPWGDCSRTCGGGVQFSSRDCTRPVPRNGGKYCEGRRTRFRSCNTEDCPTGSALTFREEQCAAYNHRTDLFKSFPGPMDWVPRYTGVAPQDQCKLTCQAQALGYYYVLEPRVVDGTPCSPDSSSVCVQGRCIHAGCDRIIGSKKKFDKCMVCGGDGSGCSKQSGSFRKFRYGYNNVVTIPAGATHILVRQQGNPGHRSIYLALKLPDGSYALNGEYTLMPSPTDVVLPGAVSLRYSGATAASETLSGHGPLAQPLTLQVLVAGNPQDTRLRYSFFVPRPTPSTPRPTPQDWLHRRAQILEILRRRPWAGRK
The experiment can be described thus: In vitro fluorescence screen for Aggrecanase-1 inhibitors. Conditions: Table 3; for IC50: read-out: Agg1 IC50; for Ki: read-out: Ki Agg1. It is filed as biochemical.

The target of experiment [2] is T2, purified recombinant human Aggrecanase-2 (Ag2t-Phe628-Strep) (Homo sapiens, UniProt Q9UNA0).
T2 construct: the form used is denoted as Ag2t-Phe628-Strep (MW=41,737)
T2 sequence (Q9UNA0 262-628): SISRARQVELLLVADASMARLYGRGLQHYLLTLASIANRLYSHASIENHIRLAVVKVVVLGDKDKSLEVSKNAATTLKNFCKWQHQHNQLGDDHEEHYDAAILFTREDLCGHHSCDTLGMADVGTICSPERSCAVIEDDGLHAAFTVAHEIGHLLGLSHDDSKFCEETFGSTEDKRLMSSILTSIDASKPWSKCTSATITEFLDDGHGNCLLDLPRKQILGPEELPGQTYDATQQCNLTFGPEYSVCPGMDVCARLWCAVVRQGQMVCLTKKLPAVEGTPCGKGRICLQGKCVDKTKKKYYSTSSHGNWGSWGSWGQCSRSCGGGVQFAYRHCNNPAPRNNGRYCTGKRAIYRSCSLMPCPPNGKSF
As to the kind of experiment: In vitro fluorescence screen for Aggrecanase-2 inhibitors. Conditions: for IC50: read-out: Agg 2 IC50; for Ki: read-out: Ki Agg2. It is filed as biochemical.

For `CC(C)(Cc1ccccc1)NC(=O)[C@H](CCC(=O)O)NC(=O)c1ccc(-c2cccs2)s1` [N^2-(2,2′-bithien-5-ylcarbonyl)-N-(1,1-dimethyl-2-phenylethyl)-L-α-glutamine], the IC50 in experiment [1] is under 30 nM; in experiment [2] (Table 3) it was 200 to 600 nM.
Take `CC(C)(Cc1ccc(Cl)cc1)NC(=O)[C@H](CCC(=O)O)NC(=O)c1ccc(-c2cccs2)s1` [N^2-(2,2′-bithien-5-ylcarbonyl)-N-[2-(4-chlorophenyl)-1,1-dimethylethyl]-L-α-glutamine]: in experiment [1], the IC50 is under 30 nM and the Ki amounted to 86 nM. In experiment [2] (Table 3), the IC50 is 600 to 1800 nM and the Ki turned out to be 1150 nM.
As to `CC(C)(Cc1ccc(F)cc1)NC(=O)[C@H](CCC(=O)O)NC(=O)c1ccc(Br)cc1` [N^2-(4-bromobenzoyl)-N-[2-(4-fluorophenyl)-1,1-dimethylethyl]-L-α-glutamine], the values for the IC50 in experiment [1] and in experiment [2] (Table 3) were 1040 nM and 7400 nM, respectively.
The corresponding values for `CC(C)(Cc1ccccc1)NC(=O)[C@H](CCC(=O)O)NC(=O)c1cccc(-c2ccc(Cl)s2)c1` [N^2-[3-(5-chloro-2-thienyl)benzoyl]-N-(1,1-dimethyl-2-phenylethyl)-L-α-glutamine] are over 900 nM and over 8300 nM.
The corresponding values for `CC(C)(Cc1ccccc1)NC(=O)[C@H](CCC(=O)O)NC(=O)c1ccc(-c2ccc3c(c2)OCC3)cc1` [N^2-[4-(2,3-dihydro-1-benzofuran-6-yl)benzoyl]-N-(1,1-dimethyl-2-phenylethyl)-L-α-glutamine] are 70 nM and 270 to 800 nM.
With `CC(=O)c1ccc(-c2ccc(C(=O)N[C@@H](CCC(=O)O)C(=O)NC(C)(C)Cc3ccccc3)cc2)s1` [N^2-[4-(5-acetyl-2-thienyl)benzoyl]-N-(1,1-dimethyl-2-phenylethyl)-L-α-glutamine], the IC50 in experiment [1] is 300 to 900 nM. Moreover, in experiment [2] (Table 3, at 2500 (nM), read-out: Agg 2 % at concentration), the inhibition at 2.5 µM was found to be 5%.
Consider `CC(=O)c1ccc(-c2ccc(C(=O)N[C@@H](CCC(=O)O)C(=O)NC(C)(C)Cc3ccc(Cl)cc3)cc2)s1` [N^2-[4-(5-acetyl-2-thienyl)benzoyl]-N-[2-(4-chlorophenyl)-1,1-dimethylethyl]-L-α-glutamine], for which the IC50 in experiment [1] stood at 2400 nM. For the same molecule, the inhibition at 7.4 µM in experiment [2] (read-out: Agg 2 % at concentration) came out at 50%.
Regarding `CC(C)(Cc1ccc(Cl)cc1)NC(=O)[C@H](CCC(=O)O)NC(=O)c1ccc(-c2ccc(Br)s2)cc1` [N^2-[4-(5-bromo-2-thienyl)benzoyl]-N-[2-(4-chlorophenyl)-1,1-dimethylethyl]-L-α-glutamine], in experiment [1], the IC50 is under 30 nM and the Ki came out at 8.3 nM. Besides, in experiment [2] (Table 3), the IC50 was 30 to 100 nM and the Ki was found to be 69 nM.
For the molecule `CC(C)(Cc1ccc(F)cc1)NC(=O)[C@@H](CCC(=O)O)NC(=O)c1ccc(-c2ccc(Cl)s2)cc1` [N^2-[4-(5-chloro-2-thienyl)benzoyl]-N-[2-(4-fluorophenyl)-1,1-dimethylethyl]-D-α-glutamine], the IC50 in experiment [1] was over 400 nM; in experiment [2] (Table 3), over 2700 nM.
For `CC(C)(Cc1ccc(F)cc1)NC(=O)[C@H](CCC(=O)O)NC(=O)c1ccc(-c2ccccc2)cc1F` [N^2-[(3-fluorobiphenyl-4-yl)carbonyl]-N-[2-(4-fluorophenyl)-1,1-dimethylethyl]-L-α-glutamine], the IC50 in experiment [1] was under 30 nM; in experiment [2] (Table 3), 200 nM.
Turning to `CC(C)(Cc1ccc(F)cc1)NC(=O)[C@H](CCC(=O)O)NC(=O)c1ccc(-c2cccc(Cl)c2)cc1` [N^2-[(3′-chlorobiphenyl-4-yl)carbonyl]-N-[2-(4-fluorophenyl)-1,1-dimethylethyl]-L-α-glutamine], in experiment [1], the IC50 was under 30 nM and the Ki was determined as 8.8 nM. Moreover, in experiment [2] (Table 3), the IC50 worked out at 200 nM and the Ki was found to be 157 nM.
The corresponding values for `CC(C)(Cc1ccc(F)cc1)NC(=O)[C@H](CCC(=O)O)NC(=O)c1ccc(-c2cccc(F)c2)cc1` [N^2-[(3′-fluorobiphenyl-4-yl)carbonyl]-N-[2-(4-fluorophenyl)-1,1-dimethylethyl]-L-α-glutamine] are under 30 nM, 4.5 nM, 77 nM and 81 nM.
The corresponding values for `CC(C)(Cc1ccc(F)cc1)NC(=O)[C@H](CCC(=O)O)NC(=O)c1ccc(-c2ccc(Cl)cc2)cc1` [N^2-[(4′-chlorobiphenyl-4-yl)carbonyl]-N-[2-(4-fluorophenyl)-1,1-dimethylethyl]-L-α-glutamine] are under 30 nM, 6.7 nM, 59 nM and 54 nM.
The corresponding values for `CC(C)(Cc1ccc(F)cc1)NC(=O)[C@H](CCC(=O)O)NC(=O)c1ccc(-c2ccc(F)cc2)cc1` [N^2-[(4′-fluorobiphenyl-4-yl)carbonyl]-N-[2-(4-fluorophenyl)-1,1-dimethylethyl]-L-α-glutamine] are under 30 nM, 6.9 nM, 83 nM and 75 nM.
With `CC(C)(Cc1ccccc1)NC(=O)[C@H](CCC(=O)O)NC(=O)c1ccc(-c2ccc(F)c(Cl)c2)s1` [N^2-{[5-(3-chloro-4-fluorophenyl)-2-thienyl]carbonyl}-N-(1,1-dimethyl-2-phenylethyl)-L-α-glutamine], in experiment [1], the IC50 was under 30 nM and the Ki was under 3 nM. In experiment [2] (Table 3), the IC50 was 60 to 200 nM and the Ki came out at 156 nM.
Turning to `CC(C)(Cc1ccc(Cl)cc1)NC(=O)[C@H](CCC(=O)O)NC(=O)c1ccc(-c2ccc(F)c(Cl)c2)s1` [N^2-{[5-(3-chloro-4-fluorophenyl)-2-thienyl]carbonyl}-N-[2-(4-chlorophenyl)-1,1-dimethylethyl]-L-α-glutamine], the IC50 in experiment [1] was found to be 60 nM; in experiment [2] (Table 3), 3000 nM.
As to `CC(C)(Cc1ccc(F)cc1)NC(=O)[C@H](CCC(=O)O)NC(=O)c1ccc(-c2ccc(F)c(Cl)c2)s1` [N^2-{[5-(3-chloro-4-fluorophenyl)-2-thienyl]carbonyl}-N-[2-(4-fluorophenyl)-1,1-dimethylethyl]-L-α-glutamine], in experiment [1], the IC50 was under 30 nM and the Ki is 6.7 nM. For the same molecule, in experiment [2] (Table 3), the IC50 was 98 nM and the Ki came out at 45 nM.
The corresponding values for `CC(C)(Cc1ccccc1)NC(=O)[C@H](CCC(=O)O)NC(=O)c1ccc(-c2ccc(Cl)s2)nc1` [N^2-{[6-(5-chloro-2-thienyl)pyridin-3-yl]carbonyl}-N-(1,1-dimethyl-2-phenylethyl)-L-α-glutamine] are 20 to 70 nM, 37.6 nM, 100 to 300 nM and 359 nM.

The values are drawn from US7998965B2, “Glutamate aggrecanase inhibitors” (Wyeth LLC, priority 2005, dated 2011).
